Measurements: patent publication US20260294867A1, “METHODS FOR WEIGHT LOSS AND/OR REDUCING WEIGHT GAIN” (The Medical College of Wisconsin, Inc., priority 2023, published 2026)

How the values were obtained:
Format in all cases: in vivo, C57BL/6J diet-induced obesity (DIO) male mice
[1] = Example 1: eating behavior, calories ingested per day; conditions: 2-way ANOVA of FIG. 4A; reutericyclin 100 μg/kg gavage, semaglutide 1 nmole/kg/day IP
Source text: (§1) FIG. 1 depicts the experimental approach for this Example. C57BL/6J diet-induced obesity (DIO) male mice were obtained at 12 weeks of age and housed singly in the MCW animal facility (www.jax.org/jax-mice-and-services/strain-data-sheet-pages/phenotype-information-380050). Mice were maintained on a 60% high fat diet (HFD) (Research Diets D12492) throughout the experiment. Mice were acclimated for 2 weeks prior to treatment with either semaglutide, reutericyclin, both drugs, or neither drug.
(§2) Mice were weight-matched into 4 groups (N=10 per group) and given either reutericyclin via gavage to achieve a dosage of 100 μg/kg or injected intraperitoneally (IP) with semaglutide to administer 1 nmole/kg/day. All mice experienced both gavage and injection with either drug or vehicle. Vehicle for reutericyclin and semaglute are identical: 3.0% DMSO in phosphate buffered saline (PBS).
(§3) The four groups were: the control group (HFD-PBS), which received vehicle only; the HFD-RTC group, which were administered reutericyclin at a dose of 100 μg/kg of body weight in PBS; the HFD-RTC-SemaG group, which received reutericyclin at a dose of 100 μg/kg of body weight and 1 nanomole of semaglutide/kg of body weight in vehicle; and the HFD-SemaG group, which were administered 1 nanomole of semaglutide/kg of body weight in vehicle. […]

[2] = Example 1: fasted blood glucose; conditions: 2-way ANOVA of FIG. 4B; reutericyclin 100 μg/kg gavage, semaglutide 1 nmole/kg/day IP
Source text: as §1, §2, §3

[3] = Example 2: change in body mass on day 26; conditions: 2-way ANOVA
Source text: (§4) FIG. 5 depicts the experimental approach for this Example, and additional details can be found in Tables 3 and 4 below. C57BL/6J diet-induced obesity (DIO) male mice were obtained at 12 weeks of age and housed singly in the MCW animal facility (https://www.jax.org/jax-mice-and-services/strain-data-sheet-pages/phenotype-information-380050). Mice were maintained on a 60% high fat diet (Research Diets D12492) throughout the experiment. Mice were acclimated for 2 weeks prior to treatment with either semaglutide, reutericyclin (RTC), both drugs, or neither drug.
as §2, with “(PBS). […]” for “(PBS).”
(§5) Mice were weighed daily to assess changes in body mass. […] Feeding efficiency is calculated by measuring the amount of weight gained by each mouse per gram of food consumed over a period of 5 days. Feeding efficiency shown here was calculated over days 21-26. […]

[4] = Example 2: change in weight at day 46 after withdrawal of the semaglutide; conditions: 2-way ANOVA
Source text: as §4
as §2, with “(PBS). […]” for “(PBS).”
as §5

[5] = Example 2: feeding efficiency; conditions: 2-way ANOVA, days 21-26
Source text: as §4
as §2, with “(PBS). […]” for “(PBS).”
as §5

[6] = Example 2: fasted blood glucose at day 27; conditions: 4 hours without food
Source text: as §4, §2
The four groups of mice were as follows: Group 1 (black) (HFD-PBS) received no drug but experienced gavage and injection; Group 2 (red) (HFD-RTC) received reutericyclin via gavage and experienced injection with vehicle only; Group 3 (green) (HFD-SemaG) received no drug via gavage and experienced injection with semaglutide; and Group 4 (purple) (HFD-RTC-SemaG) received reutericyclin via gavage and experienced injection with semaglutide.
Fasted blood glucose (4 hours without food) was performed with standard glucose test strips. Blood was obtained by a tail prick on day 27 of the experiment.
For each 2-way ANOVA statistical analyses, injection refers to semaglutide, gavage refers to reutericyclin, and interaction refers to the combination of injection and gavage.
FIG. 9 is a bar graph depicting the fasted blood glucose level at day 27 as described in Example 2.

With CCCCCCC/C=C/C(=O)N1C(=O)C(C(C)=O)=C(O)[C@H]1CC(C)C [reutericyclin, (5R)-1-(2-decenoyl)-2-hydroxy-3-acetyl-5-isobutyl-42-pyrroline-4-one] the “effect on eating (calories ingested per day)” value [1] was “no noted effect”, the “effect on fasting blood glucose” value [2] was “no noted effect” and the “Significant?, change in body mass” value [3] was “Yes”. The “% of total variation, change in body mass” value ([3]; gavage = reutericyclin 100 μg/kg, injection = semaglutide 1 nmole/kg/day IP, interaction = combination) was 7.893%, the “Significant?, change in weight after withdrawal of the semaglutide” value ([4]; semaglutide stopped at day 26) was “Yes” and the “% of total variation, change in weight after withdrawal of the semaglutide” value ([4]; semaglutide stopped at day 26, gavage = reutericyclin, injection = semaglutide, interaction = combination) was 5.422%. For the same molecule, the “Significant?, feeding efficiency” value [5] was “Yes”, the “% of total variation, feeding efficiency” value ([5]; weight gained per gram of food consumed, gavage = reutericyclin, injection = semaglutide, interaction = combination) was 8.034% and the “Significant?, fasted blood glucose level” value ([6]; 2-way ANOVA) was “No”. For the same molecule, the “% of total variation, fasted blood glucose level” value ([6]; 2-way ANOVA, gavage = reutericyclin, injection = semaglutide, interaction = combination) was 9.241e−005% and the “effect on blood glucose levels” value ([6]; tail prick) was “does not”.
